Results from ChEMBL document CHEMBL4028801, “A multifactorial approach to hepatobiliary transporter assessment enables improved therapeutic compound development” (Toxicol Sci, 2013).
Counter-ions that a name gives are not always drawn.

Columns and labels:
[1] = molecular target: ATP-binding cassette sub-family C member 2 (Homo sapiens, UniProt Q92887); assay: Inhibition of human MRP2 overexpressed in Sf9 cell membrane vesicles assessed as uptake of [3H]-estradiol-17beta-D-glucuronide in presence of ATP and GSH measured after 20 mins by membrane vesicle transport assay
ATP-binding cassette sub-family C member 2, sequence (Q92887 whole entry): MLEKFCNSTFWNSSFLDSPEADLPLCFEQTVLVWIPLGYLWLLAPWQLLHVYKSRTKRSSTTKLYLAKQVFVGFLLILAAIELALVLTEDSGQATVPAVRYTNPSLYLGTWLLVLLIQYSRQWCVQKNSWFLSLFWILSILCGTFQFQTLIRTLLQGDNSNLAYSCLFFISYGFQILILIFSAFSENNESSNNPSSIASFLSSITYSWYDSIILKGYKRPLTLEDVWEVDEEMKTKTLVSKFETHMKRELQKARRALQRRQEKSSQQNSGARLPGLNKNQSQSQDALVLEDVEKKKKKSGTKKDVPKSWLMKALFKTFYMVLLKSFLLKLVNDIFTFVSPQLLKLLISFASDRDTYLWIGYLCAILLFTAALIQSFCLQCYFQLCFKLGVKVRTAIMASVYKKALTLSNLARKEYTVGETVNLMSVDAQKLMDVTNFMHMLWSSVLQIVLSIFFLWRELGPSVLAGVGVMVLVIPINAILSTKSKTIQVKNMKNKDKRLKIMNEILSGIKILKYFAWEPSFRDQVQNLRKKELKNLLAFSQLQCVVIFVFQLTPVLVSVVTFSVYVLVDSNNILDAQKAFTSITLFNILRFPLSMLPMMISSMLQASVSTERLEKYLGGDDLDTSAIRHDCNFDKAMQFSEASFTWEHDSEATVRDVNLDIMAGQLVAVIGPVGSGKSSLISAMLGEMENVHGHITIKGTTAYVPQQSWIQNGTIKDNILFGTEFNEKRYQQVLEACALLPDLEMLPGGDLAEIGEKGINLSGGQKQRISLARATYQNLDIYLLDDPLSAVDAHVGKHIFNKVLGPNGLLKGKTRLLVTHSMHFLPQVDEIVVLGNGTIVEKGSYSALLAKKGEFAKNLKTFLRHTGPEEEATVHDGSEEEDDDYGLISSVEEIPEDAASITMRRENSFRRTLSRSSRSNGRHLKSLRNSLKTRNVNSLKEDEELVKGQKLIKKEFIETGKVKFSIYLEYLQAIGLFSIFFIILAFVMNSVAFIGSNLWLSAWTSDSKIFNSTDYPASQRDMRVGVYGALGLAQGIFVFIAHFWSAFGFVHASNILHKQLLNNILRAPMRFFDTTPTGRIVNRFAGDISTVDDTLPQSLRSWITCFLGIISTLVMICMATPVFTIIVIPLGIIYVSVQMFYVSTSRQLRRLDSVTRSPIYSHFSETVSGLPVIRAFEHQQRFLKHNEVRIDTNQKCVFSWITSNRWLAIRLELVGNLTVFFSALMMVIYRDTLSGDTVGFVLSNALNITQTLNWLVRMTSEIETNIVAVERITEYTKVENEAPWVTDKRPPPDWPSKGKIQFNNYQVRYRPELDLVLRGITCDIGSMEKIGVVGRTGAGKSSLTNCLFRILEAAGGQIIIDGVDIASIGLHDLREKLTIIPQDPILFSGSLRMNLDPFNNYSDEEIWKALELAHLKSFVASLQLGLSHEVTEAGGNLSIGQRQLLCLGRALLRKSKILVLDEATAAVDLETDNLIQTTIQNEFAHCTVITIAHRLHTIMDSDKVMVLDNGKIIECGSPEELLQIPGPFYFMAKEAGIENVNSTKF

[2] = molecular target: T1, ATP-binding cassette sub-family C member 4 (Homo sapiens, UniProt O15439); assay: Inhibition of human MRP4 overexpressed in Sf9 cell membrane vesicles assessed as uptake of [3H]-estradiol-17beta-D-glucuronide in presence of ATP and GSH measured after 20 mins by membrane vesicle transport assay; format: ADME, cell-based
T1 sequence (O15439 whole entry): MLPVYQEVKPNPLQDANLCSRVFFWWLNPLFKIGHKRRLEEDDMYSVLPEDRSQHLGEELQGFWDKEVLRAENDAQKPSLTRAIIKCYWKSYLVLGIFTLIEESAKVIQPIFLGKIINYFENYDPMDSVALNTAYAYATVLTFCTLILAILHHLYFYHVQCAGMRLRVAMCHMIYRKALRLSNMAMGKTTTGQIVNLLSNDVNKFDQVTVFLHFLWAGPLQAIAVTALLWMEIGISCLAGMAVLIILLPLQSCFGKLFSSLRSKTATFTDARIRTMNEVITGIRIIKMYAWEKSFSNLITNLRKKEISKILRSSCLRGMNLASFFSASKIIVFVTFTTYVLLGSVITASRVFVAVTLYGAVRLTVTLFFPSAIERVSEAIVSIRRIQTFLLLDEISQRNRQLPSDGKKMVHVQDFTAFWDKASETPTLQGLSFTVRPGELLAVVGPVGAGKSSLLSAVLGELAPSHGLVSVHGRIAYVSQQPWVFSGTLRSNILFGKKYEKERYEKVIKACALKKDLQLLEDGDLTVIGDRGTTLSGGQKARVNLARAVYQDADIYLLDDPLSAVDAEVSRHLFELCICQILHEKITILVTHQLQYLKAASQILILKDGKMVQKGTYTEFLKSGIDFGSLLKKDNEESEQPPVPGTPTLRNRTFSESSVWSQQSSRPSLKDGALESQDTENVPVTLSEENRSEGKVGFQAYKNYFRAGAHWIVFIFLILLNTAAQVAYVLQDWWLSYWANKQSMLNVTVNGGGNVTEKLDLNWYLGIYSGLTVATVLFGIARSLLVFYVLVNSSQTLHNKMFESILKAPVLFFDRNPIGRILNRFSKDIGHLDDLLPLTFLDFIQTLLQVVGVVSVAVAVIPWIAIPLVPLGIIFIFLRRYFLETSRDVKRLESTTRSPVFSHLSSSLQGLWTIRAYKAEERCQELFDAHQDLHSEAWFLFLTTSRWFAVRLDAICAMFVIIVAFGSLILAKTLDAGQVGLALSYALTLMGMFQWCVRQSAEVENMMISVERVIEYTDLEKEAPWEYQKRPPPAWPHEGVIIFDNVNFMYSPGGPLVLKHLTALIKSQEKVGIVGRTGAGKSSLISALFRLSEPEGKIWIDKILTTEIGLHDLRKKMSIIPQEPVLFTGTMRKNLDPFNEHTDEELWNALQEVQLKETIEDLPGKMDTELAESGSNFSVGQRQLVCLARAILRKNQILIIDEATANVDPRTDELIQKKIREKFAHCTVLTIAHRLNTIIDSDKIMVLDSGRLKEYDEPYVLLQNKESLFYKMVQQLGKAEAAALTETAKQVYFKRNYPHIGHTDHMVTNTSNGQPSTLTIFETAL

[3] = molecular target: ATP-binding cassette sub-family C member 3 (Homo sapiens, UniProt O15438); assay: Inhibition of human MRP3 overexpressed in Sf9 insect cell membrane vesicles assessed as uptake of [3H]-estradiol-17beta-D-glucuronide in presence of ATP and GSH measured after 10 mins by membrane vesicle transport assay; format: ADME, cell-based
ATP-binding cassette sub-family C member 3, sequence (O15438 whole entry): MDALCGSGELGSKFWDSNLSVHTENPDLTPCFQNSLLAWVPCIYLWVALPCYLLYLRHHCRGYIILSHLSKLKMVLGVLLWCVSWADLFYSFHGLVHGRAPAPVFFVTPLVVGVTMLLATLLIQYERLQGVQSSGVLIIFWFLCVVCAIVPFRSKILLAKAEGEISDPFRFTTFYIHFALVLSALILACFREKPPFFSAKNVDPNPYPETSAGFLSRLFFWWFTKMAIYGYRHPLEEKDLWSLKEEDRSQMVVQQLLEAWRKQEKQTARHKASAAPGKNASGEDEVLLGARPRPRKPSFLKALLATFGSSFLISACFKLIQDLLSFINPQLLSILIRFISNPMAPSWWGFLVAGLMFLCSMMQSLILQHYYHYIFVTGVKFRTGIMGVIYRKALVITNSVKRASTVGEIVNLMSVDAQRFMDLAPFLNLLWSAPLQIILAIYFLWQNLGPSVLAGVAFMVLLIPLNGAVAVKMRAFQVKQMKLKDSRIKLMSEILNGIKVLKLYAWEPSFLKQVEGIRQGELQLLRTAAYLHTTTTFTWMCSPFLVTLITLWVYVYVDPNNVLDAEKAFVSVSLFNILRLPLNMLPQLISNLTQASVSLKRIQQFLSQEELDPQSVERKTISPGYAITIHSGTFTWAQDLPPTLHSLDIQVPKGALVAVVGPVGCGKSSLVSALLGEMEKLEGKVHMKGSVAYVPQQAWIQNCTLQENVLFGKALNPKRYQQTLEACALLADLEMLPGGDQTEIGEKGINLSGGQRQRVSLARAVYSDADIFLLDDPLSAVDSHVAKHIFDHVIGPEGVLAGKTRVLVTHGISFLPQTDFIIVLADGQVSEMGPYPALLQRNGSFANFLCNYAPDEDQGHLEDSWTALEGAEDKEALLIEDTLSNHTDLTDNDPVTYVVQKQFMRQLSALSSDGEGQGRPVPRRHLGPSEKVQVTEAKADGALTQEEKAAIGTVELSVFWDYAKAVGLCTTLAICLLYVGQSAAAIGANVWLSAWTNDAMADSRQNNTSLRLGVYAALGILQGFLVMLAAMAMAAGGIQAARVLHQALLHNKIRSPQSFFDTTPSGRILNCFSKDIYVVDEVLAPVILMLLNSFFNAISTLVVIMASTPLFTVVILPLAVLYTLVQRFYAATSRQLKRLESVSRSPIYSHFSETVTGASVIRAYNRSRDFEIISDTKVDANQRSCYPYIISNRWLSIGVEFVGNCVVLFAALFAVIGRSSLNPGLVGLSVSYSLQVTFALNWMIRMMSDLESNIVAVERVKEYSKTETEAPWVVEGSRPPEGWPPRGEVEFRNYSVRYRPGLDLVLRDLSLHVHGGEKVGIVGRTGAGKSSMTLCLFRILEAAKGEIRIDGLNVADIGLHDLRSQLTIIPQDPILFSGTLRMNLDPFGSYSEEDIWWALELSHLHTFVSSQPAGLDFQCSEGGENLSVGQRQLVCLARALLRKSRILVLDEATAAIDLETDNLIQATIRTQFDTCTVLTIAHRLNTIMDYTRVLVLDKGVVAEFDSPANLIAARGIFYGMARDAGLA

Bile salt export pump = Bile salt export pump (Homo sapiens, UniProt O95342); assay: Inhibition of human BSEP overexpressed in Sf9 cell membrane vesicles assessed as uptake of [3H]-taurocholate in presence of ATP measured after 15 to 20 mins by membrane vesicle transport assay; format: ADME, cell-based
Bile salt export pump, sequence (O95342 whole entry): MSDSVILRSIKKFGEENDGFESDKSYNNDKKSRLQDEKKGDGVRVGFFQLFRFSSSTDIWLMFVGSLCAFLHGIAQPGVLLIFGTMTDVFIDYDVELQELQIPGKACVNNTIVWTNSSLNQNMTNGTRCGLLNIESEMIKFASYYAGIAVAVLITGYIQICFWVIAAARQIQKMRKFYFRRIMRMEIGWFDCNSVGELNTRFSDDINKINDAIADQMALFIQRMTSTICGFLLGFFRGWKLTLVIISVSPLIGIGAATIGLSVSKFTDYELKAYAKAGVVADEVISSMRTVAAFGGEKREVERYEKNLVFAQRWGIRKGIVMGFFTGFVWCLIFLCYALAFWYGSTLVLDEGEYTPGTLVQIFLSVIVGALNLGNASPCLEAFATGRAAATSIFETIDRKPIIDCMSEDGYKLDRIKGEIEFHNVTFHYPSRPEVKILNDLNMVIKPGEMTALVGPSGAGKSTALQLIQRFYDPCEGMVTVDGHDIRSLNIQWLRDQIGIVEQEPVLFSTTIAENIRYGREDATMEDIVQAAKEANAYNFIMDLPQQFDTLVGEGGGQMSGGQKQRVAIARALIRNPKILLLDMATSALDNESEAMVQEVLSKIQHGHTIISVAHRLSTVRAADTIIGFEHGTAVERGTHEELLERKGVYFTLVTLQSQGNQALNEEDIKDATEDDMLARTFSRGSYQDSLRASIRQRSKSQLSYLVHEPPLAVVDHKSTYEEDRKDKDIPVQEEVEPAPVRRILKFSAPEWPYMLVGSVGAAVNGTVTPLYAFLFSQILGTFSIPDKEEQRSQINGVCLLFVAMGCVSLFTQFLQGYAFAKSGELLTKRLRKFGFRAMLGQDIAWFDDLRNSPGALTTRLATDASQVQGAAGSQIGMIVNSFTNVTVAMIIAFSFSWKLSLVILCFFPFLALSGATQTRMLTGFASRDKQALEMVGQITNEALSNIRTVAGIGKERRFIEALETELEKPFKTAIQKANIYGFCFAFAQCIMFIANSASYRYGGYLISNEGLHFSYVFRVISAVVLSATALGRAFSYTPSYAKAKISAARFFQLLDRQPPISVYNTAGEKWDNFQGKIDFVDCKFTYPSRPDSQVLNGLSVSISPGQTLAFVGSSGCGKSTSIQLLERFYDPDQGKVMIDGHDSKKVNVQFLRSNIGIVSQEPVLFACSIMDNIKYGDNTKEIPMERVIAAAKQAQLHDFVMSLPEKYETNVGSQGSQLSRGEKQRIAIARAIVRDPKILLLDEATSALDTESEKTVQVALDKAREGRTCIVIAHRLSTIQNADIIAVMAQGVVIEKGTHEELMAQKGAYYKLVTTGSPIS

Row | Compound | IC50 [1] [µM] | IC50 [2] [µM] | IC50 [3] [µM] | IC50 (Bile salt export pump) [µM]
1 | CCC(=O)NCC[C@@H]1CCc2ccc3c(c21)CCO3 [RAMELTEON] | > 133 | > 133 | > 133 | > 133
2 | C#CCN[C@@H]1CCc2ccccc21 [RASAGILINE MESYLATE] | > 133 | > 133 | > 133 | > 133
3 | CCN1CCC[C@H]1CNC(=O)c1c(OC)ccc(Br)c1OC [REMOXIPRIDE] | > 133 | > 133 | > 133 | > 133
4 | NC(=O)c1ncn([C@@H]2O[C@H](CO)[C@@H](O)[C@H]2O)n1 [RIBAVIRIN] | > 133 | > 133 | > 133 | > 133
5 | CO[C@H]1/C=C/O[C@@]2(C)Oc3c(C)c(O)c4c(O)c(c5c(nc6cc(C)ccn65)c4c3C2=O)NC(=O)/C(C)=C\C=C\[C@H](C)[C@H](O)[C@@H](C)[C@@H](O)[C@@H](C)[C@H](OC(C)=O)[C@@H]1C [RIFAXIMIN] | 15.4 | 30.2 | 65 | 42
6 | Nc1nc2ccc(OC(F)(F)F)cc2s1 [RILUZOLE] | > 133 | > 133 | > 133 | > 133
7 | Cc1c(C(=O)NN2CCCCC2)nn(-c2ccc(Cl)cc2Cl)c1-c1ccc(Cl)cc1 [RIMONABANT] | > 133 | > 133 | > 133 | 25
8 | O=C(NC[C@H]1CN(c2ccc(N3CCOCC3=O)cc2)C(=O)O1)c1ccc(Cl)s1 [RIVAROXABAN] | > 133 | > 133 | > 133 | > 133
9 | CN(C)CCc1c[nH]c2ccc(Cn3cncn3)cc12 [RIZATRIPTAN BENZOATE] | > 133 | > 133 | > 133 | > 133
10 | C=CC[N+]1([C@H]2C[C@H]3[C@@H]4CC[C@H]5C[C@H](O)[C@@H](N6CCOCC6)C[C@]5(C)[C@H]4CC[C@]3(C)[C@H]2OC(C)=O)CCCC1 [ROCURONIUM BROMIDE] | > 133 | > 133 | > 133 | > 133
11 | CS(=O)(=O)c1ccc(C2=C(c3ccccc3)C(=O)OC2)cc1 [ROFECOXIB] | > 133 | > 133 | > 133 | > 133
12 | CN(C(=O)c1c(O)c2ccccc2n(C)c1=O)c1ccccc1 [ROQUINIMEX] | > 133 | > 133 | > 133 | > 133
13 | CC(C)c1nc(N(C)S(C)(=O)=O)nc(-c2ccc(F)cc2)c1/C=C/[C@@H](O)C[C@@H](O)CC(=O)O [ROSUVASTATIN CALCIUM] | > 133 | 26.8 | 58.3 | > 133
14 | C=C(C)[C@H]1Cc2c(ccc3c2O[C@@H]2COc4cc(OC)c(OC)cc4[C@@H]2C3=O)O1 [ROTENONE] | > 133 | > 133 | > 133 | 8
15 | CC[C@H]1OC(=O)[C@H](C)[C@@H](O[C@H]2C[C@@](C)(OC)[C@@H](O)[C@H](C)O2)[C@H](C)[C@@H](O[C@@H]2O[C@H](C)C[C@H](N(C)C)[C@H]2O)[C@](C)(O)C[C@@H](C)/C(=N\OCOCCOC)[C@H](C)[C@@H](O)[C@]1(C)O [ROXITHROMYCIN] | > 133 | > 133 | > 133 | > 133
16 | CC[C@@]1(O)C(=O)OCc2c1cc1n(c2=O)Cc2cc3c([N+](=O)[O-])cccc3nc2-1 [RUBITECAN] | 60.5 | 5.1 | 10.2 | > 133
17 | OCc1cc(C(O)CNCCCCCCOCCCCc2ccccc2)ccc1O (centres undefined) [SALMETEROL XINAFOATE] | > 133 | > 133 | > 133 | > 133
18 | C#CCN(C)[C@H](C)Cc1ccccc1 [SELEGILINE HYDROCHLORIDE] | > 133 | > 133 | > 133 | > 133

Row | Compound | IC50 [1] [µM] | IC50 [2] [µM] | IC50 [3] [µM] | IC50 (Bile salt export pump) [µM]
19 | O=C1NCCN1CCN1CCC(c2cn(-c3ccc(F)cc3)c3ccc(Cl)cc23)CC1 [SERTINDOLE] | > 133 | > 133 | > 133 | 82.7
20 | N[C@@H](CC(=O)N1CCn2c(nnc2C(F)(F)F)C1)Cc1cc(F)c(F)cc1F [SITAGLIPTIN] | > 133 | > 133 | > 133 | > 133
21 | CC(C)NCC(O)c1ccc(NS(C)(=O)=O)cc1 (centres undefined) [SOTALOL] | > 133 | > 133 | > 133 | > 133
22 | C[C@@H]1CN(c2c(F)c(N)c3c(=O)c(C(=O)O)cn(C4CC4)c3c2F)C[C@H](C)N1 [SPARFLOXACIN] | > 133 | > 133 | > 133 | > 133
23 | Cc1cn([C@H]2C=C[C@@H](CO)O2)c(=O)[nH]c1=O [STAVUDINE] | > 133 | > 133 | > 133 | > 133
24 | CC(SC(=O)c1cccs1)C(=O)NCC(=O)O (centres undefined) [STEPRONIN] | > 133 | > 133 | > 133 | > 133
25 | CC1(C)[C@H](C(=O)O)N2C(=O)C[C@H]2S1(=O)=O [SULBACTAM] | > 133 | > 133 | > 133 | > 133
26 | Nc1ccc(S(=O)(=O)Nc2ncccn2)cc1 [SULFADIAZINE] | > 133 | > 133 | > 133 | > 133
27 | Cc1cc(NS(=O)(=O)c2ccc(N)cc2)no1 [SULFAMETHOXAZOLE] | > 133 | > 133 | > 133 | > 133
28 | Cc1noc(NS(=O)(=O)c2ccc(N)cc2)c1C [SULFISOXAZOLE] | > 133 | > 133 | > 133 | > 133
29 | Cc1ccc(C(=O)Nc2ccc(S(=O)(=O)O)c3cc(S(=O)(=O)O)cc(S(=O)(=O)O)c23)cc1NC(=O)c1cccc(NC(=O)Nc2cccc(C(=O)Nc3cc(C(=O)Nc4ccc(S(=O)(=O)O)c5cc(S(=O)(=O)O)cc(S(=O)(=O)O)c45)ccc3C)c2)c1 [SURAMIN] | 36.8 | > 133 | > 133 | > 133
30 | Nc1c2c(nc3ccccc13)CCCC2 [TACRINE] | > 133 | 23.7 | > 133 | > 133
31 | O=C1OC(OC(=O)c2cccnc2Nc2cccc(C(F)(F)F)c2)c2ccccc21 (centres undefined) [TALNIFLUMATE] | > 133 | > 133 | > 133 | > 133
32 | CCOC(=O)c1ccc(C#Cc2ccc3c(c2)C(C)(C)CCS3)nc1 [TAZAROTENE] | > 133 | > 133 | > 133 | > 133
33 | CCCCCNC(=N)N/N=C/c1c[nH]c2ccc(OC)cc12 [TEGASEROD MALEATE] | > 133 | > 133 | > 133 | > 133
34 | Cc1cn([C@@H]2C[C@@H](O)[C@H](CO)O2)c(=O)[nH]c1=O [TELBIVUDINE] | > 133 | > 133 | > 133 | > 133
35 | Cn1nnc2c(C(N)=O)ncn2c1=O [TEMOZOLOMIDE] | > 133 | > 133 | > 133 | > 133
36 | COc1cc([C@@H]2c3cc4c(cc3[C@@H](O[C@@H]3O[C@@H]5CO[C@@H](c6cccs6)O[C@H]5[C@H](O)[C@H]3O)[C@H]3COC(=O)[C@H]23)OCO4)cc(OC)c1O [TENIPOSIDE] | > 133 | 34.9 | 20.6 | > 133
